Data taken from paper PMC11062899, “De novo development of small cyclic peptides that are orally bioavailable” (Nature Chemical Biology, 2023).
“And” between values parts separate entries of the source, which are not always exact repeats. Identical values can stand only once.

What was measured:
[1] = molecular target: T1, porcine pepsin (Sus scrofa, UniProt P00791); assay: Peptide stability in simulated gastric fluid (SGF); type: in vitro ADME
T1 construct: 0.32 g of porcine pepsin (Sigma-Aldrich, P7125) was dissolved under gentle agitation; purchased Sigma-Aldrich P7125
T1 sequence (P00791 60-385): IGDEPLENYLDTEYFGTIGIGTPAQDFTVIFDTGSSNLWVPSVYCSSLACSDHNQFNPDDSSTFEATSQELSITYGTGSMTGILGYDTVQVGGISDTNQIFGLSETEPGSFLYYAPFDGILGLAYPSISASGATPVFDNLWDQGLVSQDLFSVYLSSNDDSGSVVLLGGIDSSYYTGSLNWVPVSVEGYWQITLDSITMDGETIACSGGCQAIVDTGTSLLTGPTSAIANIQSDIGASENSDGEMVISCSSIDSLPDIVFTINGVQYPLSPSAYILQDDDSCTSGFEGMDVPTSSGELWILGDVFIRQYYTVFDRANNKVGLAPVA
Method: (§1) Simulated gastric and intestinal fluids were prepared according to the States Pharmacopeia specifications (Test Solutions, United States Pharmacopeia 35, NF 30, 2012). SGF: 0.2 g of sodium chloride was dissolved in 50 ml of water, and the pH was adjusted to 1.2 by addition of 0.7 ml of 10 M hydrochloric acid. Then, 0.32 g of porcine pepsin (Sigma-Aldrich, P7125) was dissolved under gentle agitation, and the volume was filled up to 100 ml with Milli-Q water. SIF: 0.68 g of monobasic potassium phosphate was dissolved in 25 ml of Milli-Q water, and the pH was adjusted to 6.8 by adding 7.7 ml of a 0.2 M sodium hydroxide solution. Next, 1 g of porcine pancreatin (Sigma-Aldrich, P3292) was added under gentle agitation, and the volume was adjusted to 100 ml with Milli-Q water to afford a fine suspension. To test the stability in simulated gastrointestinal fluids, 396 μl of SGF or SIF was pre-heated at 37 °C for 10 min, and 4 μl of a 1 mM peptide solution in DMSO was added. […] Supernatant was analyzed by LC–MS to measure the peptide concentrations at the different timepoints. Residual peptide was calculated by normalizing the concentrations measured at T1 to T0.

[2] = Passive artificial membrane permeability (PAMPA)
[3] = system: porcine pancreatin; assay: Peptide stability in simulated intestinal fluid (SIF); type: in vitro ADME; settings: after 8 h vs 0 h (TIC); average of R1-R3
Method: as §1

[4] = as above; type: in vitro ADME, porcine; settings: simulated gi fluid; 8 h, 37 °C, pH 6.8; read-out: Proteolytic stability: SIF (8 h) % remaining
Method: as §1

[5] = molecular target: T2, rat α-thrombin (Rattus norvegicus, UniProt P18292); assay: Protease inhibition, Ki for rat α-thrombin (fluorogenic substrate Z-Gly-Gly-Arg-AMC); type: biochemical; settings: replicates R1-R3
T2 construct: rat α-thrombin (Molecular Innovations) were used at final concentrations of 2 nM and 3 nM; purchased Molecular Innovations
Summary of the method: (§2)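 Ki values come from Cheng–Prusoff correction of IC50, itself fitted by four-parameter logistic regression of activity versus a no-peptide control. Assays used 2 nM human or 3 nM rat thrombin, 50 μM Z-Gly-Gly-Arg-AMC, 30 min kinetic fluorescence at 25 °C.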

[6] = Metabolic stability in rat liver microsomes (RLMs); settings: rat, microsomes
[7] = molecular target: human α-thrombin (Homo sapiens, UniProt P00734); assay: Protease inhibition, Ki for human α-thrombin (fluorogenic substrate Z-Gly-Gly-Arg-AMC); type: biochemical; settings: replicates R1-R3
Summary of the method: as §2

[8] = peptide 1.33E+02 uM, slope of proteolytic substrate cleavage over time

SMILES: O=C1C[C@H]2CCCN2C(=O)[C@H](Cc2ccccn2)NC(=O)[C@@H](NC(=O)c2ccc(Cl)s2)CSCCS(=O)(=O)CCSCCN1 [compound 12]
- SGF stability, Residual peptide Average ([1]; after 8 h vs 0 h (TIC), average of R1-R3): 99.15
- SGF stability, Residual peptide ([1]; after 8 h vs 0 h (TIC), single replicates R1-R3): 102.14 and 93.27 and 102.05
- remaining at 8 h ([1]; simulated gi fluid, 8 h, 37 °C, pH 1.2, read-out: Proteolytic stability: SGF (8 h) % remaining): 99 ± 5%
- PAMPA permeability: % permeability ([2]; 50 μM, 12–18 h, acceptor concentration relative to equilibrium): 0.35 ± 0.03%
- Papp at 50 μM ([2]; PAMPA, pH 7.4): 0.229 nm/s
- Permeability% Average ([2]; PAMPA, average of R1-R3): 0.35%
- Permeability% R1 ([2]; PAMPA, replicate R1, TIC of top well sample relative to sample at theoretical equilibrium): 0.32%
- Permeability% R3 ([2]; PAMPA, replicate R3, TIC of top well sample relative to sample at theoretical equilibrium): 0.38%
- SIF stability, Residual peptide Average [3]: 95.62
- remaining at 8 h [4]: 96 ± 6%
- Rat alpha thrombin inhibition, slope normalized to DMSO [5, 8]: 4.6 and 7.6 and 2.5
- Rat alpha thrombin inhibition, slope normalized to DMSO ([5]; peptide 1.67E+01 uM): 7.9 and 9.3 and 7.8
- Rat alpha thrombin inhibition, slope normalized to DMSO ([5]; peptide 2.08E+00 uM): 26.1 and 28.9 and 26.4
- Rat alpha thrombin inhibition, slope normalized to DMSO ([5]; peptide 3.33E+01 uM): 4.7 and 8.8 and 5.5
- Rat alpha thrombin inhibition, slope normalized to DMSO ([5]; peptide 4.17E+00 uM): 21.7 and 23.0 and 20.8
- Rat alpha thrombin inhibition, slope normalized to DMSO ([5]; peptide 6.67E+01 uM): 5.5 and 8.4 and 4.7
- Rat alpha thrombin inhibition, slope normalized to DMSO ([5]; peptide 8.33E+00 uM): 11.6 and 14.0 and 11.0
- microsomal CLint ([6]; CL (ul/min/mg protein) R1, RLM CL, replicate R1): 90.2 µL/min/mg
- microsomal CLint ([6]; CL (ul/min/mg protein) R2, RLM CL, replicate R2): 68.8 µL/min/mg
- microsomal CLint ([6]; CL (ul/min/mg protein) R3, RLM CL, replicate R3): 72.9 µL/min/mg
- half-life ([6]; Half Life (min) R1, RLM metabolic stability, replicate R1, 0-60 min): 15.4 min
- half-life ([6]; Half Life (min) R2, RLM metabolic stability, replicate R2, 0-60 min): 20.1 min
- half-life ([6]; Half Life (min) R3, RLM metabolic stability, replicate R3, 0-60 min): 19 min
- half-life ([6]; Metabolic stability: Half life T1/2 (min), RLMs, mean and SD, three measurements): 18.2 ± 2 min
- microsomal CLint ([6]; Metabolic stability: RLM CL (ul/min/mg), RLMs, mean and SD, three measurements): 77 ± 9 µL/min/mg
- microsomal CLint ([6]; Metabolic stability: RLM CL Average, summary table, average of R1-R3): 77.3 µL/min/mg
- microsomal CLint ([6]; Metabolic stability: RLM CL R1, summary table, rounded, replicate R1): 90.2 µL/min/mg
- microsomal CLint ([6]; Metabolic stability: RLM CL R2, summary table, rounded, replicate R2): 68.8 µL/min/mg
- microsomal CLint ([6]; Metabolic stability: RLM CL R3, summary table, rounded, replicate R3): 73 µL/min/mg
- Human alpha thrombin inhibition, slope normalized to DMSO ([7]; peptide 1.02E-03 uM): 102.9 and 99.8 and 96.6
- Human alpha thrombin inhibition, slope normalized to DMSO ([7]; peptide 1.04E+00 uM): 56.9 and 56.3 and 49.2
- Human alpha thrombin inhibition, slope normalized to DMSO ([7]; peptide 1.27E-04 uM): 90.5 and 95.3 and 95.8
- Human alpha thrombin inhibition, slope normalized to DMSO ([7]; peptide 1.30E-01 uM): 71.9 and 86.4 and 78.8
- Human alpha thrombin inhibition, slope normalized to DMSO [7, 8]: 6.4 and 9.7 and 4.3
- Human alpha thrombin inhibition, slope normalized to DMSO ([7]; peptide 1.63E-02 uM): 99.5 and 89.1 and 90.1
- Human alpha thrombin inhibition, slope normalized to DMSO ([7]; peptide 1.67E+01 uM): 16.0 and 14.1 and 9.4
- Human alpha thrombin inhibition, slope normalized to DMSO ([7]; peptide 2.03E-03 uM): 98.8 and 94.5 and 92.3
- Human alpha thrombin inhibition, slope normalized to DMSO ([7]; peptide 2.08E+00 uM): 52.9 and 44.1 and 36.2
- Human alpha thrombin inhibition, slope normalized to DMSO ([7]; peptide 2.54E-04 uM): 106.8 and 94.8 and 97.0
- Human alpha thrombin inhibition, slope normalized to DMSO ([7]; peptide 2.60E-01 uM): 78.1 and 77.3 and 67.5
- Human alpha thrombin inhibition, slope normalized to DMSO ([7]; peptide 3.18E-05 uM): 100.4 and 97.0 and 90.2
- Human alpha thrombin inhibition, slope normalized to DMSO ([7]; peptide 3.26E-02 uM): 100.0 and 89.9 and 87.8
- Human alpha thrombin inhibition, slope normalized to DMSO ([7]; peptide 3.33E+01 uM): 12.7 and 10.3 and 16.0
- Human alpha thrombin inhibition, slope normalized to DMSO ([7]; peptide 4.07E-03 uM): 92.6 and 96.1 and 91.8
- Human alpha thrombin inhibition, slope normalized to DMSO ([7]; peptide 4.17E+00 uM): 39.5 and 36.2 and 29.7
- Human alpha thrombin inhibition, slope normalized to DMSO ([7]; peptide 5.09E-04 uM): 101.4 and 93.9 and 96.1
- Human alpha thrombin inhibition, slope normalized to DMSO ([7]; peptide 5.21E-01 uM): 64.5 and 65.3 and 59.0
- Human alpha thrombin inhibition, slope normalized to DMSO ([7]; peptide 6.36E-05 uM): 103.2 and 97.0 and 93.0
- Human alpha thrombin inhibition, slope normalized to DMSO ([7]; peptide 6.51E-02 uM): 93.3 and 87.6 and 88.6
- Human alpha thrombin inhibition, slope normalized to DMSO ([7]; peptide 6.67E+01 uM): 9.5 and 8.1 and 4.7
- Human alpha thrombin inhibition, slope normalized to DMSO ([7]; peptide 8.14E-03 uM): 100.4 and 99.0 and 91.1
- Human alpha thrombin inhibition, slope normalized to DMSO ([7]; peptide 8.33E+00 uM): 24.1 and 22.7 and 13.9
